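These data come from cells grown in 96-well plates and exposed to compound for 48 hours at five concentrations. GI50: concentration for 50% inhibition of growth. TGI denotes the concentration required for complete inhibition of growth.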
Key:
Experiment in all cases: NCI tumour cell line growth inhibition, 48 h
NCI-H23 lung = tested on: NCI-H23 lung
SF-268 CNS = tested on: SF-268 CNS
RXF 393 renal = tested on: RXF 393 renal
U251 CNS = tested on: U251 CNS
ACHN renal = tested on: ACHN renal
HOP-92 NSCLC = tested on: HOP-92 NSCLC
MALME-3M melanoma = tested on: MALME-3M melanoma
MCF7 breast = tested on: MCF7 breast
HS 578T breast = tested on: HS 578T breast
SW-620 colon = tested on: SW-620 colon
SF-539 CNS = tested on: SF-539 CNS
UO-31 renal = tested on: UO-31 renal
NCI-H226 lung = tested on: NCI-H226 lung
MDA-MB-435 = tested on: MDA-MB-435
HCC-2998 colon = tested on: HCC-2998 colon
SK-MEL-28 melanoma = tested on: SK-MEL-28 melanoma
OVCAR-4 ovarian = tested on: OVCAR-4 ovarian
EKVX NSCLC = tested on: EKVX NSCLC
HOP-62 NSCLC = tested on: HOP-62 NSCLC
COLO 205 colon = tested on: COLO 205 colon
OVCAR-8 ovarian = tested on: OVCAR-8 ovarian
SK-OV-3 ovarian = tested on: SK-OV-3 ovarian
786-0 renal = tested on: 786-0 renal
NCI-H460 lung = tested on: NCI-H460 lung
NCI-H522 lung = tested on: NCI-H522 lung
IGROV1 ovarian = tested on: IGROV1 ovarian
M14 melanoma = tested on: M14 melanoma
NCI/ADR-RES ovarian = tested on: NCI/ADR-RES ovarian
HCT-15 colon = tested on: HCT-15 colon

Compound `N/C(=N\c1nc2ccccc2s1)NC(=O)Nc1ccccc1F` has a GI50 (NCI-H23 lung) of 2.23 µM, a TGI (NCI-H23 lung) of 25 µM and a GI50 (SF-268 CNS) of 3.54 µM. For the same compound, the TGI (SF-268 CNS) was over 100 µM, the GI50 (RXF 393 renal) was 0.645 µM and the TGI (RXF 393 renal) was 5.25 µM. The GI50 (U251 CNS) was 0.468 µM, the TGI (U251 CNS) was 14.4 µM and the GI50 (ACHN renal) was 2.45 µM. The TGI (ACHN renal) was 20.9 µM, the GI50 (HOP-92 NSCLC) was 6.33 µM and the TGI (HOP-92 NSCLC) was 24.5 µM. It also gave a GI50 (MALME-3M melanoma) of 1.21 µM, a TGI (MALME-3M melanoma) of 22.5 µM and a GI50 (MCF7 breast) of 0.424 µM. The TGI (MCF7 breast) was 20.5 µM, the GI50 (HS 578T breast) was 0.513 µM and the TGI (HS 578T breast) was 19.5 µM. For the same compound, the GI50 (SW-620 colon) was 0.412 µM, the TGI (SW-620 colon) was 21.9 µM and the GI50 (SF-539 CNS) was 0.529 µM. It also gave a TGI (SF-539 CNS) of 4.72 µM, a GI50 (UO-31 renal) of 1.7 µM and a TGI (UO-31 renal) of 21.8 µM. It also gave a GI50 (NCI-H226 lung) of 3.29 µM, a TGI (NCI-H226 lung) of 25 µM and a GI50 (MDA-MB-435) of 0.231 µM. It also gave a TGI (MDA-MB-435) of 0.68 µM, a GI50 (HCC-2998 colon) of 1.68 µM and a TGI (HCC-2998 colon) of 23.1 µM. For the same compound, the GI50 (SK-MEL-28 melanoma) was 10.2 µM, the TGI (SK-MEL-28 melanoma) was 26.4 µM and the GI50 (OVCAR-4 ovarian) was 10.9 µM. It also gave a TGI (OVCAR-4 ovarian) of 39 µM, a GI50 (EKVX NSCLC) of 0.526 µM and a TGI (EKVX NSCLC) of 67.2 µM. It also gave a GI50 (HOP-62 NSCLC) of 0.829 µM, a TGI (HOP-62 NSCLC) of 15.6 µM and a GI50 (COLO 205 colon) of 1.27 µM. The TGI (COLO 205 colon) was 10.1 µM, the GI50 (OVCAR-8 ovarian) was 1.25 µM and the TGI (OVCAR-8 ovarian) was 16.6 µM. It also gave a GI50 (SK-OV-3 ovarian) of 6.48 µM, a TGI (SK-OV-3 ovarian) of 23.8 µM and a GI50 (786-0 renal) of 6.41 µM. For the same compound, the TGI (786-0 renal) was 22 µM, the GI50 (NCI-H460 lung) was 0.406 µM and the TGI (NCI-H460 lung) was 12.2 µM. It also gave a GI50 (NCI-H522 lung) of 0.412 µM, a TGI (NCI-H522 lung) of 8.84 µM and a GI50 (IGROV1 ovarian) of 1 µM. For the same compound, the TGI (IGROV1 ovarian) was 25.2 µM, the GI50 (M14 melanoma) was 0.4 µM and the TGI (M14 melanoma) was 20.8 µM. For the same compound, the GI50 (NCI/ADR-RES ovarian) was 0.364 µM, the TGI (NCI/ADR-RES ovarian) was 3.11 µM and the GI50 (HCT-15 colon) was 0.434 µM. For the same compound, the TGI (HCT-15 colon) was over 100 µM.
